# Target: human TREX1 (Homo sapiens (Human), UniProt Q9NSU2)
# Test: TREX1 Exonuclease Assay
# Type: biochemical
# Conditions: not given
# Description: For human TREX1, the nucleotide sequence of the gene construct was codon optimized for expression in the bacterial host. The sequence was incorporated into the pMAL-c5e vector (NEB) downstream of a solubility-promoting MBP (maltose binding protein) fusion partner. The fusion protein product was expressed in E. coli strain BL21 (DE3) (Millipore) and purified in a series of chromatographic steps. Initial steps were conducted using a dextrin sepharose affinity column followed by a Q-sepharose ion exchange column (both GE Healthcare). After the second column the MBP partner was removed by incubation with enterokinase (NEB). Further purification was carried out with the second application of a Q-sepharose column followed by a Superdex 75 (GE Healthcare) size exclusion column. Finally, a heparin sepharose column (GE Healthcare) was applied to remove contaminating nucleotides.
# To evaluate the effect of compounds on TREX1 activity, test compounds were serially diluted (11-point, 3-fold) from 10 mM stock solutions and delivered to 384-well low-volume assay plates in 80 nL DMSO using an acoustic dispenser. Next, 4 μL of human TREX1 (0.5 nM), or murine TREX1 (1 nM), diluted in assay buffer (20 mM Tris pH 7.5, 5 mM MgCl2, 100 μg/mL BSA, 0.002% Triton X-100, 2 mM DTT), was added to the assay plate. After incubating for 30 minutes, 4 μL of labeled DNA oligonucleotide (500 nM) in assay buffer was added to initiate TREX1 exonuclease activity. The reaction was allowed to proceed for 45 minutes at room temperature prior to the addition of 4 μL of 150 mM EDTA to halt TREX1 activity.
# Chain of human TREX1 (Q9NSU2 whole entry): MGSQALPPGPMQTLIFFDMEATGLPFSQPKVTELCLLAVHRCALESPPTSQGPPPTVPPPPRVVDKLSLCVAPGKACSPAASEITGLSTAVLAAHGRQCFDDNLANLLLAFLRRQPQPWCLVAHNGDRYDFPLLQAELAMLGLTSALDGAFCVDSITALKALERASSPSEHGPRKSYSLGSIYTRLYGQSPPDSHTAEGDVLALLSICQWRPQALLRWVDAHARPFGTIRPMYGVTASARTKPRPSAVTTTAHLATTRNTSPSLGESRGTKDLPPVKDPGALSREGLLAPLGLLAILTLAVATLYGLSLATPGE
row,Structure (SMILES),IC50
1,COc1c(CNC(=O)[C@@H](CCC(=O)O)N2CCC(CCc3ccccc3)N3C[C@H](N)C[C@H]3C2=O)ccc(Cl)c1Cl (stereo partly shown) [Example 22],< 1000 nM
2,N[C@@H]1C[C@H]2C(=O)N([C@H](CCC(=O)O)C(=O)NCc3ccc(Cl)c(Cl)c3F)CCC(CCc3ccccc3)N2C1 (stereo partly shown) [Example 30],< 1000 nM
3,"CCN(CC)C(=O)COC(=O)CC[C@H](C(=O)NCc1ccc(Cl)c(Cl)c1)N1CCC(CCc2ccccc2)N2C[C@H](N)C[C@H]2C1=O (stereo partly drawn) [Example 88, (4R)-2-(diethylamino)-2-oxoethyl 4-((8R,9aS)-8-amino-1-oxo-5-phenethylhexahydro-1H-pyrrolo[1,2-a][1,4]diazepin-2(3H)-yl)-5-((3,4-dichlorobenzyl)amino)-5-oxopentanoate]",< 1000 nM
4,"CCOC(=O)CC[C@H](C(=O)NCc1ccc(Cl)c(Cl)c1)N1CCC(CCc2ccccc2)N2C[C@H](N)C[C@H]2C1=O (stereo partly drawn) [Example 89, (4R)-ethyl 4-((8R,9aS)-8-amino-1-oxo-5-phenethylhexahydro-1H-pyrrolo[1,2-a][1,4]diazepin-2(3H)-yl)-5-((3,4-dichlorobenzyl)amino)-5-oxopentanoate]",< 1000 nM
5,CC(C)OC(=O)CC[C@H](C(=O)NCc1ccc(Cl)c(Cl)c1)N1CCC(CCc2ccccc2)N2C[C@H](N)C[C@H]2C1=O (stereo partly shown) [Example 92],< 1000 nM
6,CCOC(=O)CC[C@H](C(=O)NCc1cc(Cl)c(Cl)cc1F)N1CCC(CCc2ccccc2)N2C[C@H](N)C[C@H]2C1=O (stereo partly shown) [Example 94],< 1000 nM
7,CCOC(=O)CC[C@H](C(=O)N1CCOC[C@H]1c1ccc(Cl)c(Cl)c1)N1CCC(CCc2ccccc2)N2C[C@H](N)C[C@H]2C1=O (stereo partly shown) [Example 96],< 1000 nM
8,CCOC(=O)CC[C@H](C(=O)N1CCCC[C@H]1c1ccc(Cl)c(Cl)c1)N1CCC(CCc2ccccc2)N2C[C@H](N)C[C@H]2C1=O (stereo partly shown) [Example 97],< 1000 nM
9,CCOC(=O)CC[C@H](C(=O)N1CCC[C@H]1c1ccc(Cl)c(Cl)c1)N1CCC(CCc2ccccc2)N2C[C@H](N)C[C@H]2C1=O (stereo partly shown) [Example 98],< 1000 nM
10,CCOC(=O)CC[C@H](C(=O)NCc1cc(Cl)c(Cl)cn1)N1CCC(CCc2ccccc2)N2C[C@H](N)C[C@H]2C1=O (stereo partly shown) [Example 99],< 1000 nM
11,COC(=O)CC[C@H](C(=O)NCc1ccc(Cl)cn1)N1CCC(CCc2ccccc2)N2C[C@H](N)C[C@H]2C1=O (stereo partly shown) [Example 100],< 1000 nM
12,COC(=O)CC[C@H](C(=O)NS(=O)(=O)c1ccc(Cl)c(Cl)c1)N1CCC(CCc2ccccc2)N2C[C@H](N)C[C@H]2C1=O (stereo partly shown) [Example 101],< 1000 nM
13,CCOC(=O)CC[C@H](C(=O)NCc1ccc(Cl)c(Cl)c1OC)N1CCC(CCc2ccccc2)N2C[C@H](N)C[C@H]2C1=O (stereo partly shown) [Example 102],< 1000 nM
14,CCOC(=O)CC[C@H](C(=O)NCc1cc(Cl)c(Cl)cc1OC)N1CCC(CCc2ccccc2)N2C[C@H](N)C[C@H]2C1=O (stereo partly shown) [Example 103],< 1000 nM
15,"COC(=O)CC[C@H](C(=O)NCc1ccc(Cl)c(Cl)c1)N1CCC(CCc2ccccc2)N2C[C@H](N)C[C@H]2C1=O (stereo partly drawn) [Example 104, (4R)-methyl 4-((8R,9aS)-8-amino-1-oxo-5-phenethylhexahydro-1H-pyrrolo[1,2-a][1,4]diazepin-2(3H)-yl)-5-((3,4-dichlorobenzyl)amino)-5-oxopentanoate]",< 1000 nM
16,COc1c(CNC(=O)[C@@H](CCC(N)=O)N2CCC(CCc3ccccc3)N3C[C@H](N)C[C@H]3C2=O)ccc(Cl)c1Cl (stereo partly shown) [Example 106],< 1000 nM
17,NC(=O)CC[C@H](C(=O)NCc1ccc(Cl)c(Cl)c1F)N1CCC(CCc2ccccc2)N2C[C@H](N)C[C@H]2C1=O (stereo partly shown) [Example 107],< 1000 nM
18,COc1c(CNC(=O)[C@@H](CCC#N)N2CCC(CCc3ccccc3)N3C[C@H](N)C[C@H]3C2=O)ccc(Cl)c1Cl (stereo partly shown) [Example 108],< 1000 nM
19,N#CCC[C@H](C(=O)NCc1ccc(Cl)c(Cl)c1F)N1CCC(CCc2ccccc2)N2C[C@H](N)C[C@H]2C1=O (stereo partly shown) [Example 109],< 1000 nM
20,N#CCC[C@H](C(=O)NCc1ccc(Cl)c(Cl)c1)N1CCC(COc2ccc(F)cc2)N2C[C@H](N)C[C@H]2C1=O (stereo partly shown) [Example 110],< 1000 nM

row,Structure (SMILES),IC50
1,N#CCC[C@H](C(=O)NCc1ccc(Cl)c(Cl)c1)N1CCC(COc2cccc(F)c2)N2C[C@H](N)C[C@H]2C1=O (stereo partly shown) [Example 111],< 1000 nM
2,N#CC[C@H](C(=O)NCc1ccc(Cl)c(Cl)c1)N1CCC(CCc2ccccc2)N2C[C@H](N)C[C@H]2C1=O (stereo partly shown) [Example 112],< 1000 nM
3,N#CC[C@H](C(=O)NCc1ccc(Cl)c(Cl)n1)N1CCC(CCc2ccccc2)N2C[C@H](N)C[C@H]2C1=O (stereo partly shown) [Example 113],< 1000 nM
4,N[C@@H]1C[C@H]2C(=O)N([C@H](CCC(=O)NO)C(=O)NCc3ccc(Cl)c(Cl)c3)CCC(COc3ccc(F)cc3)N2C1 (stereo partly shown) [Example 115],< 1000 nM
5,N[C@@H]1C[C@H]2C(=O)N([C@H](CCC(=O)NO)C(=O)NCc3ccc(Cl)c(Cl)c3)CCC(CCc3ccccc3)N2C1 (stereo partly shown) [Example 116],< 1000 nM
6,CONC(=O)CC[C@H](C(=O)NCc1ccc(Cl)c(Cl)c1)N1CCC(CCc2ccccc2)N2C[C@H](N)C[C@H]2C1=O (stereo partly shown) [Example 117],< 1000 nM
7,COc1c(CNC(=O)[C@@H](CCc2nnn[nH]2)N2CCC(CCc3ccccc3)N3C[C@H](N)C[C@H]3C2=O)ccc(Cl)c1Cl (stereo partly shown) [Example 119],< 1000 nM
8,N[C@@H]1C[C@H]2C(=O)N([C@H](CCc3nnn[nH]3)C(=O)NCc3ccc(Cl)c(Cl)c3F)CCC(CCc3ccccc3)N2C1 (stereo partly shown) [Example 120],< 1000 nM
9,CC(=O)NCC[C@H](C(=O)NCc1ccc(Cl)c(Cl)c1)N1CCC(CCc2ccccc2)N2C[C@H](N)C[C@H]2C1=O (stereo partly shown) [Example 131],< 1000 nM
10,CS(=O)(=O)NCC[C@H](C(=O)NCc1ccc(Cl)c(Cl)c1)N1CCC(CCc2ccccc2)N2C[C@H](N)C[C@H]2C1=O (stereo partly shown) [Example 132],< 1000 nM
11,N[C@@H]1C[C@H]2C(=O)N([C@H](CCNS(=O)(=O)C3CC3)C(=O)NCc3ccc(Cl)c(Cl)c3)CCC(CCc3ccccc3)N2C1 (stereo partly shown) [Example 133],< 1000 nM
12,CNC(=O)CC[C@H](C(=O)NCc1ccc(Cl)c(Cl)c1)N1CCC(CCc2ccccc2)N2C[C@H](N)C[C@H]2C1=O (stereo partly shown) [Example 136],< 1000 nM
13,Cc1nnc(CC[C@H](C(=O)NCc2ccc(Cl)c(Cl)c2F)N2CCC(CCc3ccccc3)N3C[C@H](N)C[C@H]3C2=O)[nH]1 (stereo partly shown) [Example 140],< 1000 nM
14,CC(C)Oc1c(CNC(=O)[C@@H](CCC#N)N2CCC(CCc3ccccc3)N3C[C@H](N)C[C@H]3C2=O)ccc(Cl)c1Cl (stereo partly shown) [Example 141],< 1000 nM
15,N[C@@H]1C[C@H]2C(=O)N([C@H](CCNS(=O)(=O)C(F)(F)F)C(=O)NCc3ccc(Cl)c(Cl)c3)CCC(CCc3ccccc3)N2C1 (stereo partly shown) [Example 142],< 1000 nM
16,CCOC(=O)N[C@@H]1C[C@H]2C(=O)N([C@H](CCC(=O)O)C(=O)NCc3ccc(Cl)c(Cl)c3)CCC(CCc3ccccc3)N2C1 (stereo partly shown) [Example 143],10000 to 100000 nM
17,CC(C)Oc1c(CNC(=O)[C@@H](CCc2nnn[nH]2)N2CCC(CCc3ccccc3)N3C[C@H](N)C[C@H]3C2=O)ccc(Cl)c1Cl (stereo partly shown) [Example 144],< 1000 nM
18,CCOC(=O)CC[C@H](C(=O)NCc1ccc(Cl)c(Cl)c1)N1CCC(CCc2ccccc2)N2C[C@H](NC(=O)OCC)C[C@H]2C1=O (stereo partly shown) [Example 145],10000 to 100000 nM
19,N[C@@H]1C[C@H]2C(=O)N([C@H](CCC(=O)O)C(=O)NCc3ccc(Cl)c(C(F)(F)F)c3)CCC(CCc3ccccc3)N2C1 (stereo partly shown) [Example 146],< 1000 nM

# Test system: THP1 Dual cells, ISRE Lucia reporter gene, transfected with G3-YSD DNA
# Test: Human Cellular EC50 Reporter Assay
# Type: cell-based
# Conditions: 72 h, serum-starved cells transfected with G3-YSD 10 ng/ml, three days
# Description: Example E is a cell-based assay for TREX1 inhibitors using THP1 Dual™ cells (Invivogen), a human monocyte cell line that has stable integration of an Interferon Stimulated Response Element (ISRE) Lucia reporter gene. The Lucia gene encodes a secreted luciferase reporter protein, under the control of an ISG54 minimal promoter in conjunction with five IFN-stimulated response elements. Activation of the cGAS-STING pathway in THP1 Dual™ cells leads to enhanced luciferase secretion and increased luminescence.
# A cell-based assay was established using THP1 Dual™ cells (InvivoGen), a human monocyte cell line that has stable integration of an Interferon Stimulated Response Element (ISRE) Lucia reporter gene. The Lucia gene encodes a secreted luciferase reporter protein, under the control of an ISG54 minimal promoter in conjunction with five IFN-stimulated response elements. Activation of the cGAS-STING pathway in these cells leads to enhanced luciferase secretion. Three days prior to the assay, cells were transferred to a T75 flask at a density of 3.0×10^5 cells/ml in 20 ml of serum-starved media (RPMI 1640 containing 1% Heat-Inactivated FBS, 1× Glutagro, 10 mM HEPES, 1 mM sodium pyruvate, 1×Pen/Strep, 100 μg/ml Normocin, 100 μg/ml Zeocin, 10 μg/ml Blasticidin). On the day of assay cells were collected by centrifugation, washed in 1×DPBS, and resuspended in the 1% serum media at 3.3×10^5 cells/ml. An aliquot of an aqueous solution of the DNA oligonucleotide G3-YSD (InvivoGen) at 1 mg/ml was diluted 100-fold into the transfection reagent LyoVec (InvivoGen) and incubated at ambient temperature for 50 min to allow complex formation. Test compounds in DMSO were transferred to a standard 96-well tissue culture plate via acoustic dispense of 0.54 μl per well. Serum-starved cells were batch transfected with complex at a final DNA concentration of 10 ng/ml for 60 min at ambient temperature before dispensing 180 ul (60,000 cells) per well into the assay plate. The assay plate was then incubated in a humidified chamber at 37° C. in 5% CO2 for three days. An aliquot of 10 μl was removed from each well to combine with 10 μl of the luciferase detection reagent, QUANTI-Luc™ Gold (InvivoGen) in a white 384-well plate. The luminescent signal was then read using an EnVision plate reader (Perkin Elmer). An EC50 for each compound was determined by plotting the signal as a function of log molar concentration and fitting to a four parameter logistic equation. (see Table 32).
row,Structure (SMILES),EC50
1,COc1c(CNC(=O)[C@@H](CCC(=O)O)N2CCC(CCc3ccccc3)N3C[C@H](N)C[C@H]3C2=O)ccc(Cl)c1Cl (stereo partly shown) [Example 22],< 1000 nM
2,N[C@@H]1C[C@H]2C(=O)N([C@H](CCC(=O)O)C(=O)NCc3ccc(Cl)c(Cl)c3F)CCC(CCc3ccccc3)N2C1 (stereo partly shown) [Example 30],1000 to 10000 nM
3,COc1c(CNC(=O)[C@@H](CCc2nnn[nH]2)N2CCC(CCc3ccccc3)N3C[C@H](N)C[C@H]3C2=O)ccc(Cl)c1Cl (stereo partly shown) [Example 119],< 1000 nM
4,N[C@@H]1C[C@H]2C(=O)N([C@H](CCc3nnn[nH]3)C(=O)NCc3ccc(Cl)c(Cl)c3F)CCC(CCc3ccccc3)N2C1 (stereo partly shown) [Example 120],1000 to 10000 nM

# Source: patent US11583538B2, “Substituted pyrrolo[1,2-a]pyrazines and pyrrolo[1,2-a][1,4]diazepines as TREX1 inhibitors” (Venenum Biodesign, LLC, priority 2019, dated 2023)
